From patent publication US20080269326A1, “Use of 1-Phenyl-3-Dimethylamino-propane Compounds for Treating Neuropathic Pain” (GRUENENTHAL GmbH, priority 2007, published 2008)

Test system: mononeuropathic pain, withdrawal threshold of rear paw
Experiment: Mononeuropathy (spinal nerve ligature, SNL), withdrawal threshold by electronic von Frey filament
Assay type: in vivo, rat
Protocol: Male Sprague Dawley rats (140-180g, Janvier, France) are kept under standard conditions (06.00-18.00 hours light, 18.00-06.00 hours darkness; 20°-24° C. room temperature; 35-70% relative atmospheric humidity, tap water and standard feed as desired) in groups of five animals in Macrolon type 4 cages.
Under pentobarbital narcosis (Narcoren, 60 mg/kg i.p., Merial GmbH, Germany) the spinal nerves L5 and L6 are tightly bound unilaterally on the left side with a silk thread (NC silk black, USP 5/0, metric 1, Braun Melsungen A G, Germany) (Kim and Chung, Pain 1992; 50: 355-63). After the operation the animals were allowed to recover for one week and within this time developed a hypersensitivity on the ipsilateral (left) paw. The hypersensitivity to a pressure stimulus can be measured using an electronic von Frey filament (Somedic, Sweden). For this purpose the animals are placed on a grating under a hood. After the animals became accustomed to the surroundings the damaged (ipsilateral, left) and undamaged (contralateral, right) rear paws are subjected to increasing pressure on the underside of the paw until the animal tries to retract the corresponding paw. The median value of five tests defines the withdrawal threshold of a test time point. The animals are tested on both rear paws before and at various times after administration of the substance or vehicle. For each animal the difference between the test value and pre-test for the ipsilateral and contralateral side is determined, and the result is expressed as the mean value (MW) and standard error of the mean (SEM) for the groups consisting in each case of 10 animals. The difference between the mean difference values of the ipsilateral and contralateral side defines the hypersensitivity induced by mononeuropathy. The statistical significance of the effect of a substance is determined on the basis of the difference values compared to the vehicle group for the ipsilateral and contralateral side, by means of bifactorial variance analysis and post hoc analysis according to Bonferroni.

CC[C@@H](c1cccc(O)c1)[C@@H](C)CN(C)C [Compound 9, (1R,2R)-3-(3-dimethylamino-1-ethyl-2-methylpropyl)-phenol]
withdrawal threshold, test value - pre-test value (MW) (0.1 mg/kg i.v., Contra, 30 min): 0.06 g | withdrawal threshold, test value - pre-test value (MW) (0.1 mg/kg i.v., Contra, 60 min): -3.13 g | withdrawal threshold, test value - pre-test value (MW) (0.1 mg/kg i.v., Contra, 180 min): -4.30 g | withdrawal threshold, test value - pre-test value (MW) (0.1 mg/kg i.v., Ipsi, 30 min): 1.74 g | withdrawal threshold, test value - pre-test value (MW) (0.1 mg/kg i.v., Ipsi, 60 min): -0.59 g | withdrawal threshold, test value - pre-test value (MW) (0.1 mg/kg i.v., Ipsi, 180 min): -2.24 g | withdrawal threshold, test value - pre-test value (MW) (0.316 mg/kg i.v., Contra, 30 min): 0.39 g | withdrawal threshold, test value - pre-test value (MW) (0.316 mg/kg i.v., Contra, 60 min): ta −6.20 g | withdrawal threshold, test value - pre-test value (MW) (0.316 mg/kg i.v., Contra, 180 min): 2.21 g | withdrawal threshold, test value - pre-test value (MW) (0.316 mg/kg i.v., Ipsi, 30 min): 5.78 g | withdrawal threshold, test value - pre-test value (MW) (0.316 mg/kg i.v., Ipsi, 60 min): 2.21 g | withdrawal threshold, test value - pre-test value (MW) (0.316 mg/kg i.v., Ipsi, 180 min): 1.68 g | withdrawal threshold, test value - pre-test value (MW) (1 mg/kg i.v., Contra, 30 min): 2.90 g | withdrawal threshold, test value - pre-test value (MW) (1 mg/kg i.v., Contra, 60 min): 2.45 g | withdrawal threshold, test value - pre-test value (MW) (1 mg/kg i.v., Contra, 180 min): -6.65 g | withdrawal threshold, test value - pre-test value (MW) (1 mg/kg i.v., Ipsi, 30 min): 12.86 g | withdrawal threshold, test value - pre-test value (MW) (1 mg/kg i.v., Ipsi, 60 min): 7.09 g | withdrawal threshold, test value - pre-test value (MW) (1 mg/kg i.v., Ipsi, 180 min): 2.01 g | withdrawal threshold, test value - pre-test value (MW) (3.16 mg/kg i.v., Contra, 30 min): 8.02 g | withdrawal threshold, test value - pre-test value (MW) (3.16 mg/kg i.v., Contra, 60 min): 2.85 g | withdrawal threshold, test value - pre-test value (MW) (3.16 mg/kg i.v., Contra, 180 min): -0.34 g | withdrawal threshold, test value - pre-test value (MW) (3.16 mg/kg i.v., Ipsi, 30 min): 18.43 g | withdrawal threshold, test value - pre-test value (MW) (3.16 mg/kg i.v., Ipsi, 60 min): 20.32 g | withdrawal threshold, test value - pre-test value (MW) (3.16 mg/kg i.v., Ipsi, 180 min): 11.06 g | withdrawal threshold, test value - pre-test value (MW) (10 mg/kg i.v., Contra, 30 min): 31.85 g | withdrawal threshold, test value - pre-test value (MW) (10 mg/kg i.v., Contra, 60 min): 10.62 g | withdrawal threshold, test value - pre-test value (MW) (10 mg/kg i.v., Contra, 180 min): 4.51 g | withdrawal threshold, test value - pre-test value (MW) (10 mg/kg i.v., Ipsi, 60 min): [drawing 7] 19.47 g | withdrawal threshold, test value - pre-test value (MW) (10 mg/kg i.v., Ipsi, 180 min): 13.65 g | inhibition of the mononeuropathically-induced withdrawal threshold reduction (10 mg/kg i.v., after 30 minutes, ipsilateral): full inhibition | statistically significant minimal effective dose (i.v., contralateral withdrawal threshold): 10 mg/kg | statistically significant minimal effective dose (i.v., ipsilateral rear paw, mononeuropathic rats): 1 mg/kg | dosage at which complete inhibition is reached (i.v., mononeuropathic pain model): 10 mg/kg
